Literature values, collected in US20190022132A1, “TREATMENT OR PREVENTION OF PULMONARY CONDITIONS WITH CARBON MONOXIDE” (PROTERRIS, INC., priority 2013, published 2019).

Tests used:
[1] = CO alveolar concentration of 25 ppm
[2] = Phase I and Phase II human trials
[3] = tested on: brain; conditions: inhalation, rats
[4] = tested on: models of acute lung injury; conditions: early timepoints; effect not sustained beyond the first 6 hours

## [C-]#[O+] [CO, carbon monoxide]
[1]
  time to reach an equilibration point: about 20 hours
[2]
  tolerability: well tolerated
[3]
  oxidative damage in the brain: can cause oxidative damage in the brain
[4]
  airway neutrophil count and lung injury: decrease airway neutrophil count and lung injury at early timepoints
